Assay results as given in ChEMBL document CHEMBL5214960 (J Med Chem, 2022).
Changes are numbered by the printed parent chain.

Columns and labels:
[1] = molecular target: Dual specificity protein phosphatase 6 (Homo sapiens, UniProt Q16828); assay: Inhibition of MKP3 (unknown origin)
[2] = molecular target: Receptor-type tyrosine-protein phosphatase F (Homo sapiens, UniProt P10586); assay: Inhibition of LAR(unknown origin)
[3] = molecular target: Receptor-type tyrosine-protein phosphatase gamma (Homo sapiens, UniProt P23470); assay: Inhibition of PTPgamma (unknown origin)
[4] = molecular target: Tyrosine-protein phosphatase non-receptor type 13 (Homo sapiens, UniProt Q12923); assay: Inhibition of FAP-1(unknown origin)
Tyrosine-protein phosphatase non-receptor type 13, sequence (Q12923 whole entry): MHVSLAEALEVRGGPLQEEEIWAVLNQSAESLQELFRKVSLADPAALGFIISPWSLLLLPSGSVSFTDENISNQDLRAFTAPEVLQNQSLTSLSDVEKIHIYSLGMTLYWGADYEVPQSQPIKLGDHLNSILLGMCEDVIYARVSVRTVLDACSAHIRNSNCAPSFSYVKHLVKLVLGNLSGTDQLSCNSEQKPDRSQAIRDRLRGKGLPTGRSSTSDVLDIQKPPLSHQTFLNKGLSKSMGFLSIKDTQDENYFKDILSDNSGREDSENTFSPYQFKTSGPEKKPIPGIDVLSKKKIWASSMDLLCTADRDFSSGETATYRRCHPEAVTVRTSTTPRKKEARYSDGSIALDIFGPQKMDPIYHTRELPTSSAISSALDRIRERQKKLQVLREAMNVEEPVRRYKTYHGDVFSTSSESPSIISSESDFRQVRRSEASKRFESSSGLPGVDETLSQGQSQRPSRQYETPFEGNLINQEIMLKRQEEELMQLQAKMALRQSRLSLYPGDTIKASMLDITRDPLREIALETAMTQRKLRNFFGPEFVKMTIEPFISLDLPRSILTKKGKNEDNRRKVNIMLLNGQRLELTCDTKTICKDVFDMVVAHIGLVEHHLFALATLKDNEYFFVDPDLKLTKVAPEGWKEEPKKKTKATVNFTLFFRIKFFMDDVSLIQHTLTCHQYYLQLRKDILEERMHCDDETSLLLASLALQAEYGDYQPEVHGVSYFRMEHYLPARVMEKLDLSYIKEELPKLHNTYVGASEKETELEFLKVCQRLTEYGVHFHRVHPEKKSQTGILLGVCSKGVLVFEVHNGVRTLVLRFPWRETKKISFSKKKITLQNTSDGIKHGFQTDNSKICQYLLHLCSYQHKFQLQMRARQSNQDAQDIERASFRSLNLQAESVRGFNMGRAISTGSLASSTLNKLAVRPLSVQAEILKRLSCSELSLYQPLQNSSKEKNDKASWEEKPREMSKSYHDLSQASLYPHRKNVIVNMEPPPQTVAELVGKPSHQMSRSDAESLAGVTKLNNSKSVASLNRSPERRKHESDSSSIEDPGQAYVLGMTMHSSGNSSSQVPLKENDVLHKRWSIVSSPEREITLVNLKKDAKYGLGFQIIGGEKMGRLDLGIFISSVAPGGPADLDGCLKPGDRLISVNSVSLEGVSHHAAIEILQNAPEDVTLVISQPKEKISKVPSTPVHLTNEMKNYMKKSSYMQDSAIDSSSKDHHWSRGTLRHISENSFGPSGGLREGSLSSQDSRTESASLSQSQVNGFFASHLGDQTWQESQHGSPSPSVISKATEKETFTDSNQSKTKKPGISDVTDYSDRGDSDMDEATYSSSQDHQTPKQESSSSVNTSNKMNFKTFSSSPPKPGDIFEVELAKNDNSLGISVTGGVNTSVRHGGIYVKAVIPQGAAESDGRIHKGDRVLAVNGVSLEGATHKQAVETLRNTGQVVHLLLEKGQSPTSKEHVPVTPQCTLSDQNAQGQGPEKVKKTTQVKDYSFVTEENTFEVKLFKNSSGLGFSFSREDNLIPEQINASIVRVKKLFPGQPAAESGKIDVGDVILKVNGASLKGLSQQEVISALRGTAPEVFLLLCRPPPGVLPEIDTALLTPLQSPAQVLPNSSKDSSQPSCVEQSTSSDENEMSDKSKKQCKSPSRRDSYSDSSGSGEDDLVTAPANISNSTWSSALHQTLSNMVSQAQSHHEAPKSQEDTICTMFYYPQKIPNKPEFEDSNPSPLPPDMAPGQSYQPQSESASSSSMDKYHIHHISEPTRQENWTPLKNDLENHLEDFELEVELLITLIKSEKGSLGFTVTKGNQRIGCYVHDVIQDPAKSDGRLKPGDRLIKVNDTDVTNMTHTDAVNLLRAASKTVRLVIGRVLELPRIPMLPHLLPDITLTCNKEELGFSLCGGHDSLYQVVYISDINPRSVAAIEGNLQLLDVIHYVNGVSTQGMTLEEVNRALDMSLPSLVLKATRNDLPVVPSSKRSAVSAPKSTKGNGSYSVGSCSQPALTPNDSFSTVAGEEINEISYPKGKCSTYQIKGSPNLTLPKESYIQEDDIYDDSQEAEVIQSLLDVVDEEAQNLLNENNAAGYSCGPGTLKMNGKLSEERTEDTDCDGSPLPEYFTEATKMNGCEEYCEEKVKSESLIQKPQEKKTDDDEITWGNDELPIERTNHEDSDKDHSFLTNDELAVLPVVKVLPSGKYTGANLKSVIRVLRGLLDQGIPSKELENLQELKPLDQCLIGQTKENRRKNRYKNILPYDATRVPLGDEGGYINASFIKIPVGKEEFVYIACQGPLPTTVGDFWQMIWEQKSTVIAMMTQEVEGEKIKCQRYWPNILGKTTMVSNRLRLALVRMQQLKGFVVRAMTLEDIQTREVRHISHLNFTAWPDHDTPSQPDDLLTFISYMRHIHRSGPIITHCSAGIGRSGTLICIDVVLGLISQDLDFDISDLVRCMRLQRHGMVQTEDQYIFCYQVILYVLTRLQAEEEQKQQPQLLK

[5] = molecular target: Receptor-type tyrosine-protein phosphatase mu (Homo sapiens, UniProt P28827); assay: Inhibition of PTPmu (unknown origin)
[6] = AUC(0 to 12 hrs) in Sprague-Dawley rat plasma at 30 mg/kg, po measured after 24 hrs by LC-MS/MS analysis; assay type: ADME, organism-based; parameters: time 24 hrs, dose 30 mg/kg, route po; settings: in vivo
[7] = Unbound Cmax in plasma of CD-1 mouse at 10 mg/kg, po measured after 8 hrs by LC-MS/MS analysis; assay type: ADME, organism-based; settings: in vivo
[8] = molecular target: CYP3A4 (Homo sapiens, UniProt P08684); assay: Inhibition of human hepatic CYP3A4 using midazolam as substrate measured after 3 mins by LC-MS analysis relative to control; assay type: ADME, tissue-based; parameters: concentration or dose not given beside the values; settings: human hepatic CYP3A4 (liver), probe midazolam
[9] = molecular target: Dual specificity protein phosphatase CDC14A (Homo sapiens, UniProt Q9UNH5); assay: Inhibition of CDC14A (unknown origin)
[10] = molecular target: T1, Low molecular weight phosphotyrosine protein phosphatase (Homo sapiens, UniProt P24666); assay: Inhibition of His-tagged human LMW-PTP expressed in Escherichia coli BL21 using pNPP as substrate incubated for 10 mins by microplate reader based spectrophotometric analysis
T1 sequence (P24666 whole entry): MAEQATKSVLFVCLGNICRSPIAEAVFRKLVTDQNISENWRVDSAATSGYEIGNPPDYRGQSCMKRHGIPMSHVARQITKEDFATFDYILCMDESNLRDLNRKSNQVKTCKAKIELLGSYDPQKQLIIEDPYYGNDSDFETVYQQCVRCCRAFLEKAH

[11] = Half life in CD-1 mouse plasma at 2 mg/kg, iv measured after 8 hrs by LC-MS/MS analysis; assay type: ADME, organism-based; settings: mouse, in vivo, iv, 2 mg/kg, 8 h
[12] = Half life in Sprague-Dawley rat plasma at 3 mg/kg, po measured after 24 hrs by LC-MS/MS analysis; assay type: ADME, organism-based; settings: in vivo
[13] = molecular target: CYP2D6 (Homo sapiens, UniProt P10635); assay: Inhibition of human hepatic CYP2D6 using bufuralol HCL as substrate measured after 3 mins by LC-MS analysis relative to control; assay type: ADME, tissue-based; parameters: concentration or dose not given beside the values; settings: human hepatic CYP2D6 (liver), probe bufuralol HCl
[14] = molecular target: T1, Low molecular weight phosphotyrosine protein phosphatase; assay: Competitive inhibition of LMW-PTP (unknown origin) assessed as inhibition constant by Lineweaver-Burk plot analysis
[15] = Half life in Sprague-Dawley rat plasma at 30 mg/kg, po measured after 24 hrs by LC-MS/MS analysis; assay type: ADME, organism-based; settings: in vivo
[16] = Oral bioavailability in CD-1 mouse plasma at 10 mg/kg measured after 8 hrs by LC-MS/MS analysis; assay type: ADME, organism-based; settings: mouse, in vivo, po, 10 mg/kg, 8 h
[17] = molecular target: Serine/threonine-protein phosphatase 5 (Homo sapiens, UniProt P53041); assay: Inhibition of PP5 (unknown origin)
[18] = Cmax in CD-1 mouse plasma at 2 mg/kg, iv measured after 8 hrs by LC-MS/MS analysis; assay type: ADME, organism-based; parameters: time 8 hrs, dose 2 mg/kg, route iv
[19] = Volume of distribution at steady state in CD-1 mouse plasma at 2 mg/kg, iv measured after 8 hrs by LC-MS/MS analysis; assay type: ADME, organism-based; settings: in vivo
[20] = molecular target: Dual specificity protein phosphatase 3 (Homo sapiens, UniProt P51452); assay: Inhibition of VHR (unknown origin)
[21] = molecular target: Tyrosine-protein phosphatase non-receptor type 11 (Homo sapiens, UniProt Q06124); assay: Inhibition of SHP2 (unknown origin)
Tyrosine-protein phosphatase non-receptor type 11, sequence (Q06124 whole entry): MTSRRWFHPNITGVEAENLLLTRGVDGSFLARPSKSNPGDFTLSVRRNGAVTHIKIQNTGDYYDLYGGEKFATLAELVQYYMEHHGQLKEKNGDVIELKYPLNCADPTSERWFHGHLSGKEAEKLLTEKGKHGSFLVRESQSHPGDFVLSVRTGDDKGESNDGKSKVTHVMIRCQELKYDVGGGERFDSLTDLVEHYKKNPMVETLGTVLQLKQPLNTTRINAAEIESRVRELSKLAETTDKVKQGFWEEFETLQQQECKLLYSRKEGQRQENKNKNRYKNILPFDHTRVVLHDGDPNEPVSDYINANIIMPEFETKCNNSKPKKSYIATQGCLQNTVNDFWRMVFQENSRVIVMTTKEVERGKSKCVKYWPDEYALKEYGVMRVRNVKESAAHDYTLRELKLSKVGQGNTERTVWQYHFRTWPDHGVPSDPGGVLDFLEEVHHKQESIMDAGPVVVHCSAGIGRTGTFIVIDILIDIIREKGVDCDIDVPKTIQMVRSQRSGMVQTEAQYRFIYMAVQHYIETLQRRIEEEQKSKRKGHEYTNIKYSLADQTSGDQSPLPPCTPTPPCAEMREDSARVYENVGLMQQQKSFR

[22] = molecular target: Receptor-type tyrosine-protein phosphatase S (Homo sapiens, UniProt Q13332); assay: Inhibition of PTPsigma (unknown origin)
[23] = molecular target: T2, Low molecular weight phosphotyrosine protein phosphatase (Mus musculus, UniProt Q9D358); assay: Inhibition of N-terminal His-tagged full length mouse LMW-PTP expressed in Escherichia coli BL21(DE3) by […] analysis
T2 sequence (Q9D358 whole entry): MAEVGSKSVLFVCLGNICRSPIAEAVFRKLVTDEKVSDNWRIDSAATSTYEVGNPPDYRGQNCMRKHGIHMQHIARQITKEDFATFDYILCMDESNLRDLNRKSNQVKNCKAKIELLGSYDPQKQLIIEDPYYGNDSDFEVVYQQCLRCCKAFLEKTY

[24] = Cmax in Sprague-Dawley rat plasma at 30 mg/kg, po measured after 24 hrs by LC-MS/MS analysis; assay type: ADME, organism-based; parameters: time 24 hrs, dose 30 mg/kg, route po; settings: in vivo
[25] = Half life in CD-1 mouse plasma at 10 mg/kg, po measured after 8 hrs by LC-MS/MS analysis; assay type: ADME, organism-based; settings: in vivo
[26] = molecular target: CYP2C9 (Homo sapiens, UniProt P11712); assay: Inhibition of human hepatic CYP2C9 using diclofenac as substrate measured after 10 mins by LC-MS analysis relative to control; assay type: ADME, tissue-based; parameters: concentration or dose not given beside the values; settings: human hepatic CYP2C9 (liver), probe diclofenac
CYP2C9, sequence (P11712 whole entry): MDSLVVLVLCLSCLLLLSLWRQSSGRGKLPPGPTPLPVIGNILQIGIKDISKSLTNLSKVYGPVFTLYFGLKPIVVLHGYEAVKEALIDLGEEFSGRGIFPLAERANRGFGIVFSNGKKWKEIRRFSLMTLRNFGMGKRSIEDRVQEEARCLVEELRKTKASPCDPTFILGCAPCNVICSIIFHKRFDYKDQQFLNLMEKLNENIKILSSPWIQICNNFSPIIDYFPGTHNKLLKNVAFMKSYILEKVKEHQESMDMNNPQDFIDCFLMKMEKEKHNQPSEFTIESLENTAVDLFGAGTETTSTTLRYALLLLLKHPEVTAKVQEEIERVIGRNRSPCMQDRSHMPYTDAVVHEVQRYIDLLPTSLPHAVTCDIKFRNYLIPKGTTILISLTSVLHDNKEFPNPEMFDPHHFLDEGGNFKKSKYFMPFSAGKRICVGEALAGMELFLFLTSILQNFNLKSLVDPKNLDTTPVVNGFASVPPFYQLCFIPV

[27] = molecular target: Receptor-type tyrosine-protein phosphatase C (Homo sapiens, UniProt P08575); assay: Inhibition of CD45 (unknown origin)
[28] = Unbound Cmax in plasma of Sprague-Dawley rat at 30 mg/kg, po measured after 24 hrs by LC-MS/MS analysis; assay type: ADME, organism-based; settings: in vivo
[29] = molecular target: Tyrosine-protein phosphatase non-receptor type 3 (Homo sapiens, UniProt P26045); assay: Inhibition of PTPH1 (unknown origin)
Tyrosine-protein phosphatase non-receptor type 3, sequence (P26045 whole entry): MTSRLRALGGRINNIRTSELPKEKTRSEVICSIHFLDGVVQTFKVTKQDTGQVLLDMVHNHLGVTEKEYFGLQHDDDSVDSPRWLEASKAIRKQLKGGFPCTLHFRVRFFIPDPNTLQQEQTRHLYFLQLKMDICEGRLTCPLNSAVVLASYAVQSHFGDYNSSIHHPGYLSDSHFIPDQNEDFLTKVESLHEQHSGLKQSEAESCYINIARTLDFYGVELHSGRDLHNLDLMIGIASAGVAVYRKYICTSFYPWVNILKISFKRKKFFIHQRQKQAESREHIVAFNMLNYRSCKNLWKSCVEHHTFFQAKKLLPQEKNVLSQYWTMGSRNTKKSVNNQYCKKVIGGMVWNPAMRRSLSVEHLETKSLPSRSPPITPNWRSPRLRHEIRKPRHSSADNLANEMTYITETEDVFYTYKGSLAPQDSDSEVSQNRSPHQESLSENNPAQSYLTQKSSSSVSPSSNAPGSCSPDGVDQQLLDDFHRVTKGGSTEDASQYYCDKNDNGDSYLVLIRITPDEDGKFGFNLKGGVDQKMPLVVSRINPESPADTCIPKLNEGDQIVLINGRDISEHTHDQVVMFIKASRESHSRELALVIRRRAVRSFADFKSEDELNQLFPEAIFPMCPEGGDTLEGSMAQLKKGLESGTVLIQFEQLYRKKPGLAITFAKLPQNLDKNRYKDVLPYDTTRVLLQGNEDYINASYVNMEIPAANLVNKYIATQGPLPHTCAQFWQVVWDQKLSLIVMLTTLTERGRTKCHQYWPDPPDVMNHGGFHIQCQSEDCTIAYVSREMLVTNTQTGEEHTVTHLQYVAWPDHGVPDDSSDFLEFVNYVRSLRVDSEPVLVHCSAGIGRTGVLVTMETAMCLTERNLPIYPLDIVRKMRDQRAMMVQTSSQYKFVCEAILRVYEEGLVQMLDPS

[30] = molecular target: Tyrosine-protein phosphatase non-receptor type 2 (Homo sapiens, UniProt P17706); assay: Inhibition of TC-PTP (unknown origin)
Tyrosine-protein phosphatase non-receptor type 2, sequence (P17706 whole entry): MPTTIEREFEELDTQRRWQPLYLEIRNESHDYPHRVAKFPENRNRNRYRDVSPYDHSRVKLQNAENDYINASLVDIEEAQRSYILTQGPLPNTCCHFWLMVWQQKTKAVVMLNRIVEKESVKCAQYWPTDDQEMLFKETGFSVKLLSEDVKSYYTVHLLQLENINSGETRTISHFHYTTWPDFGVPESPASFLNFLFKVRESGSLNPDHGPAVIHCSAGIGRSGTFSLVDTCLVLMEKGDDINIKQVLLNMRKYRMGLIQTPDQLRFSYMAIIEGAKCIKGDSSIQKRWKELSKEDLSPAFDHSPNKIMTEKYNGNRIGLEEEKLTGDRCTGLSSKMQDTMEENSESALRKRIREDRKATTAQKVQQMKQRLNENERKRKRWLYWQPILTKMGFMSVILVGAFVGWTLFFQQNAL

[31] = AUC(0 to 12 hrs) in Sprague-Dawley rat plasma at 3 mg/kg, po measured after 24 hrs by LC-MS/MS analysis; assay type: ADME, organism-based; parameters: time 24 hrs, dose 3 mg/kg, route po; settings: in vivo
[32] = molecular target: Dual specificity protein phosphatase 23 (Homo sapiens, UniProt Q9BVJ7); assay: Inhibition of VHZ (unknown origin)
Dual specificity protein phosphatase 23, sequence (Q9BVJ7 whole entry): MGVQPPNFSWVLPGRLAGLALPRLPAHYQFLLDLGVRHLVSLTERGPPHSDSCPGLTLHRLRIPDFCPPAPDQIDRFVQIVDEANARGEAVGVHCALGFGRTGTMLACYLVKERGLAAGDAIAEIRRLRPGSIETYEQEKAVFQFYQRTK

[33] = Tmax in Sprague-Dawley rat plasma at 30 mg/kg, po measured after 24 hrs by LC-MS/MS analysis; assay type: ADME, organism-based; settings: in vivo
[34] = molecular target: Tyrosine-protein phosphatase non-receptor type 1 (Homo sapiens, UniProt P18031); assay: Inhibition of PTP1B (unknown origin)
[35] = Cmax in CD-1 mouse plasma at 10 mg/kg, po measured after 8 hrs by LC-MS/MS analysis; assay type: ADME, organism-based; parameters: dose 10 mg/kg, time 8 hrs, route po; settings: mouse, in vivo, 8 h
[36] = molecular target: Tyrosine-protein phosphatase non-receptor type 12 (Homo sapiens, UniProt Q05209); assay: Inhibition of PEST(unknown origin)
[37] = molecular target: T3, Low molecular weight phosphotyrosine protein phosphatase (Rattus norvegicus, UniProt P41498); assay: Inhibition of N-terminal His-tagged full length rat LMW-PTP expressed in Escherichia coli BL21(DE3)
T3 sequence (P41498 whole entry): T2 sequence (Q9D358 whole entry) with K35N, R65K, K80R, Y158H

Cc1c(Br)cc(NC(=O)NS(=O)(=O)O)cc1Br
IC50 [1]: > 10 µM
IC50 [2]: > 10 µM
IC50 [3]: > 10 µM
IC50 [4]: > 10 µM
IC50 [5]: > 10 µM
AUC [6]: 42.8 µM·h
fCmax [7]: 233 nM
inhibition at 0.05 h [8]: 0%
IC50 [9]: > 10 µM
IC50 [10]: 4 nM
t1/2 [11]: 1.41 h
t1/2 [12]: 2.4 h
inhibition at 0.05 h [13]: 2%
Ki [14]: 1.2 nM
t1/2 [15]: 2.8 h
F [16]: 34%
IC50 [17]: > 10 µM
Cmax [18]: 13.4 µM
Vdss [19]: 0.42 L/kg
IC50 [20]: > 10 µM
IC50 [21]: > 10 µM
IC50 [22]: > 10 µM
IC50 [23]: 3 nM
Cmax [24]: 6.59 µM
t1/2 [25]: 4.2 h
inhibition at 10 min [26]: 0%
IC50 [27]: > 10 µM
fCmax [28]: 158 nM
IC50 [29]: > 10 µM
IC50 [30]: > 10 µM
AUC [31]: 4.66 µM·h
IC50 [32]: > 10 µM
Tmax [33]: 2.7 h
IC50 [34]: > 10 µM
Cmax [35]: 9.69 µM
IC50 [36]: > 10 µM
IC50 [37]: 3 nM
